Test results reported in US11364242B2, “Treatment agents for inhibiting HIV and cancer in HIV infected patients” (UNIVERSITY OF MARYLAND, BALTIMORE, priority 2015, dated 2022).
Entries after “also recorded” stand apart in the source; their conditions may differ.

Key:
[1] = system: multidrug-resistant HIV molecular clone NL4329129-2; assay: PBL infectivity assay, multidrug resistant clone; assay type: cell-based; conditions: Human immunodeficiency virus 1, 168 h
Protocol: FIG. 2A-2B are bar graphs that illustrate how INK128 inhibits replication of multidrug resistant HIV molecular clone NL4329129-2. Activated PBLs were infected for 2 hours using a MOI of 0.001. Infected cells were cultured in IL-2 medium and the indicated concentrations of INK128. On day 7, virus production was measured by p24 ELISA in the culture supernatants (FIG. 2A), and cell viability was measured by MTT (FIG. 2B) according to an embodiment.
PBLs were isolated from buffy coats of HIV seronegative donors (New York Blood Center). The laboratory-adapted strains HIV BaL and HIV HXB2; primary isolates HIV 92BR020, 92UG031, 93BR029, and 93UG082; and multidrug resistant molecular clone NL4329129-2 were obtained from the NIH AIDS Repository. […] Proliferation of PBLs was measured by the MTT kit (Roche), following the manufacturer's directions. […]
PBLs were separated from buffy coats by density centrifugation over Ficoll-Hypaque (Sigma™), and activated by culture in the presence of 1 μg/mL anti-human CD3 antibody (clone x35, Fisher Scientific™) and 2 μg/mL anti-human CD28 antibody (Clone CD28.6, eBioscience™) for 3 days. […] On day 7, viral replication was measured by p24 ELISA (Coulter) in culture supernatants and cell viability was measured by MTT assays.
EC50 values were determined by variable slope nonlinear regression analysis. […]

[2] = Tolerability in huPBL-NSG mice (body weight, wasting, death)
[3] = system: non small cell lung cancer (NSCLC) A549 cells; assay: A549 xenograft tumor in NSG mice; assay type: in vivo; conditions: 5 mg/kg daily ip for 4 weeks
Protocol: A xenograft tumor was induced by subcutaneous injection of 5×10^6 non small cell lung cancer (NSCLC) A549 cells in mice according to an embodiment.
A xenograft tumor was induced by subcutaneous injection of 5×10^6 non small cell lung cancer (NSCLC) A549 cells in mice. After 3 weeks, tumors became visible (˜200 mm^3, as measured with calipers). Mice were treated with INK128, or vehicle control (FIG. 10A), daily (via ip) for 4 weeks. INK-128 was used at 5 mg/kg (FIG. 10B). Tumor volume was measured at the indicated time points (FIG. 10C).

CCR5 = assay: Flow cytometry quantitation of surface receptor on PBLs; conditions: IL-2, 7 days, three donors
[4] = system: chronically HIV-infected U1 cell line; assay: HIV activation in chronically infected U1 cells, p24 ELISA; assay type: cell-based; conditions: INK128 <10 nM, day 3
Protocol: FIG. 5A-5C are bar graphs that illustrate INK128's inhibition of HIV activation in chronically infected cells. Latently HIV infected U1 cells were cultured in the presence of various concentrations of INK128 for 1 hour. Cultures were then untreated (FIG. 5A), or treated with HIV inducers PMA (FIG. 5B) and Tat protein (FIG. 5C). HIV production was measured by p24 ELISA in the culture supernatants on day 3 according to an embodiment.
The effects of INK128 on activation of HIV in the chronically HIV-infected U1 cell line were examined. The U1 cell line carries two copies of the HIV provirus per cell (33). Under basal conditions, U1 cells express low levels of HIV, but HIV expression is enhanced by stimulation with the phorbol ester PMA or by exogenous addition of Tat (34, 35). U1 cells were cultured in the presence of INK128 in the absence and presence of 10 nM PMA or 1 μg/mL Tat. […] As expected, unstimulated U1 cells produced low levels of HIV p24, but production was increased by addition of PMA or Tat.

HIV-1 92UG031 = assay: PBL infectivity assay, primary isolate; assay type: cell-based; conditions: Human immunodeficiency virus 1, PBMC; R5 primary isolate, PBMCs, three donors; read-out: Geometric mean INK128 EC50, nM (95% CI)
From the text: (§1) PBLs were isolated from buffy coats of HIV seronegative donors (New York Blood Center). The laboratory-adapted strains HIV BaL and HIV HXB2; primary isolates HIV 92BR020, 92UG031, 93BR029, and 93UG082; and multidrug resistant molecular clone NL4329129-2 were obtained from the NIH AIDS Repository. Primary isolate 2044 was from Paul Clapham (Windeyer Institute), and 1633 and 1638 from the Institute of Human Virology (University of Maryland School of Medicine). Maraviroc, efavirenz, raltegravir, and indinavir were from the NIH AIDS Repository. INK128 was purchased from ApexBio. Proliferation of PBLs was measured by the MTT kit (Roche), following the manufacturer's directions. PBL infectivity assays were performed as described herein.
(§2) PBLs were separated from buffy coats by density centrifugation over Ficoll-Hypaque (Sigma™), and activated by culture in the presence of 1 μg/mL anti-human CD3 antibody (clone x35, Fisher Scientific™) and 2 μg/mL anti-human CD28 antibody (Clone CD28.6, eBioscience™) for 3 days. Activated cells were infected by incubation with virus at a multiplicity of infection (MOI) of 0.001 for 2 hours. Infected cells were washed three times with PBS and cultured in 5% CO2 at 37° C., in RPMI/10% FBS supplemented with 100 units/mL IL-2 (Roche™) and antiviral drugs, in 96-well flat-bottom plates at a density of […] PBLs per 200 μL. Following 3 d of culture, half of the medium was replaced with fresh medium containing IL-2 and antiviral drugs. On day 7, viral replication was measured by p24 ELISA (Coulter) in culture supernatants and cell viability was measured by MTT assays.
(§3) EC50 values were determined by variable slope nonlinear regression analysis. Unpaired two-tailed t tests were used to check for statistical significant differences between INK128 EC50 values of R5 HIV versus X4 HIV in infectivity assays. Nonparametric Mann-Whitney tests were used to compare each treatment group and control group in animal studies. Statistical analyses were performed using GraphPad Prism™ (version 4.0). P<0.05 was considered significant.
(§4) The antiviral activity of INK128 was investigated in PBLs infected with CCR5 (R5)-tropic and CXCR4 (X4)-tropic HIV reference strains BaL and HXB2, respectively.

HIV-1 2044 = assay: PBL infectivity assay, primary isolate; assay type: cell-based; conditions: Human immunodeficiency virus 1, PBMC; X4 primary isolate, PBMCs, three donors; read-out: Geometric mean INK128 EC50, nM (95% CI)
From the text: as §1, §2, §3, §4

HIV-1 93UG082 = assay: PBL infectivity assay, primary isolate; assay type: cell-based; conditions: Human immunodeficiency virus 1, PBMC; R5 primary isolate, PBMCs, three donors; read-out: Geometric mean INK128 EC50, nM (95% CI)
From the text: as §1, §2, §3, §4

HIV-1 93BR029 = assay: PBL infectivity assay, primary isolate; assay type: cell-based; conditions: Human immunodeficiency virus 1, PBMC; R5 primary isolate, PBMCs, three donors; read-out: Geometric mean INK128 EC50, nM (95% CI)
From the text: as §1, §2, §3, §4

HIV-1 92BR020 = assay: PBL infectivity assay, primary isolate; assay type: cell-based; conditions: Human immunodeficiency virus 1, PBMC; R5 primary isolate, PBMCs, three donors; read-out: Geometric mean INK128 EC50, nM (95% CI)
From the text: as §1, §2, §3, §4

HIV-1 1633 = assay: PBL infectivity assay, primary isolate; assay type: cell-based; conditions: Human immunodeficiency virus 1, PBMC; X4 primary isolate, PBMCs, three donors; read-out: Geometric mean INK128 EC50, nM (95% CI)
From the text: as §1, §2, §3, §4

HIV-1 1638 = assay: PBL infectivity assay, primary isolate; assay type: cell-based; conditions: Human immunodeficiency virus 1, PBMC; X4 primary isolate, PBMCs, three donors; read-out: Geometric mean INK128 EC50, nM (95% CI)
From the text: as §1, §2, §3, §4

SMILES: CC(C)n1nc(-c2ccc3oc(N)nc3c2)c2c(N)ncnc21 [INK128, 5-(4-amino-1-propan-2-ylpyrazolo[3,4-d]pyrimidin-3-yl)-1,3-benzoxazol-2-amine]
- EC50 [1]: 10.9 nM
- effect on weight of the animals ([2]; 1-5 mg/kg once daily i.p. for 14 days): no adverse effects; also recorded: without obvious toxicity
- toxicity in pilot experiment ([2]; uninfected huPBL-NSG mice, 7 mg/kg daily i.p. for 2 wk): wasting and death
- tumor growth [3]: inhibits tumor growth
- percentages of CCR5 expressing cells (CCR5; CD4+ and CD8+ T cell subsets): reduced
- CCR5 receptor density (molecules/cell) (CCR5): decreased
- p24 production ([4]; U1 cells treated with 10 nM PMA): inhibited p24 production
- p24 production ([4]; U1 cells treated with 1 μg/mL Tat): inhibited p24 production
- p24 production ([4]; untreated U1 cells): inhibited p24 production
- EC50 (HIV-1 92UG031): 10.2 nM
- EC50 (HIV-1 2044): 36.7 nM
- EC50 (HIV-1 93UG082): 2.89 nM
- EC50 (HIV-1 93BR029): 4.73 nM
- EC50 (HIV-1 92BR020): 1.03 nM
- EC50 (HIV-1 1633): 17.5 nM
- EC50 (HIV-1 1638): 21.2 nM
